The record followed here is US20100240868A1, “Composition and Method for a Producing Stable Amyloid Beta Oligomers of High Molecular Weight” (priority 2005, published 2010).

A short description of data set [1]: SDS-PAGE analysis of glutaraldehyde cross-linked samples (oligomer formation and storage stability). Type of data set: physicochemical. As to the method: The soluble Aβ oligomers were cross-linked with glutaraldehyde, incubated for 10 minutes at room temperature and then quenched with 1M glycine, 1M Tris-HCl pH 7.5. Cross-linked samples were then diluted to a final concentration of 0.02 μg/μL, in Tris-glycine SDS sample buffer. For analysis, 0.28 μg Aβ (nominal concentration) in either monomeric or oligomeric form was separated by electrophoresis at 125V for about 100 minutes using a 4% to 20% tris-glycine gel (Invitrogen, Carlsbad, Calif.). Gels were then silver stained to visualize the size distribution of the soluble Aβ oligomers. For glutaraldehyde concentration optimization, HFIP-dried Aβ42 or HFIP-dried Aβ40 was solubilized in DMSO (20 mg/mL, 4.4 mM), added to 50 mM phosphate, pH 9.0, to a final concentration of 1.8 mg/mL (400 μM) and incubated at 4° C. overnight, protected from light. […]
As set forth above in Examples 1-4, Aβ42 forms soluble Aβ oligomers in 50 mM phosphate, pH 9.0 buffer during storage at 2° C. to 8° C. However, the optimal concentration for formation, biological activity and storage stability of these oligomeric species during storage was not determined. […] These cross-linked species were not disrupted in the presence of SDS, and therefore, the appropriate size distribution could be determined by SDS-PAGE. […]

A further data set has as its system PC-12 cells. The data set can be described thus: PC-12 MTT reduction assay. Type of data set: cell-based. The conditions noted are these: for MTT reduction: PC-12 cells. How it is done: PC-12 cells were plated at 30,000 cells/well and allowed to grow overnight at 37° C./5% CO2. Soluble Aβ oligomers or vehicle were added to cells at concentrations of 1 μM and 5 μM. After a four hour incubation at 37° C./5% CO2, the MTT reduction assay was performed (Lambert et al., 2001, J. Neurochem. 79, 595-605). Briefly, MTT (10 μL, 5 mg/mL) was added to each well and allowed to incubate for four hours. A solubilization buffer (100 μL, 10% SDS in 0.01 N HCl) was added and the plate was incubated at 37° C./5% CO2 overnight. The assay was then quantified at 595 nm on a Tecan Spectrafluor Plus plate reader (Tecan Systems, San Jose, Calif.).
In this experiment, Aβ42 was prepared at concentrations of 1 mM, 850 μM, 650 μM, 450 μM, 250 μM and 100 μM in 50 mM phosphate pH 9.0 buffer as described in the Example 8. After 7 days of incubation at 4° C., samples were tested by the MTT assay to determine bioactivity.
A general note: Formazan colour is commonly taken as a measure of viable cells.

For “Aβ40: HFIP-dried Aβ40 monomer peptide, solubilized in DMSO and incubated in 50 mM phosphate, pH 9.0 [reference compound]”, the oligomer formation entry in data set [1] (400 μM in 50 mM phosphate, pH 9.0, 24 hour incubation at 4° C.) is “primarily stays monomeric and does not form oligomers”.
Consider Aβ peptide (1-42) [Aβ42], for which the MTT reduction result in the data set on PC-12 cells (stock concentrations 450 μM to 650 μM in 50 mM phosphate pH 9.0, 7 days at 4° C., test concentration 5 μM, 4 h incubation) is recorded as “about 55%”; in the data set with PC-12 cells (stock concentrations below 450 μM and above 650 μM in 50 mM phosphate pH 9.0, 7 days at 4° C., tested at 1 μM and 5 μM) it was 80-105%. Further, in the data set on PC-12 cells (stock concentrations of 450 μM to 650 μM in 50 mM phosphate, pH 9.0 buffer, storage at 2-8° C.), the bioactivity after storage entry was “remain bioactive for up to seven days”. Also, the “storage stability of oligomeric (150 kDa) species” value in data set [1] (stock concentration 450 μM in 50 mM phosphate, pH 9.0 buffer, 1, 4 and 7 days at 4° C., 0.5% glutaraldehyde cross-linking) is “can be stored for seven days at 4 °C”.
